For 13 molecules, EC50 results are on record in ChEMBL document CHEMBL4130627, “Prodrugs of the Phosphoribosylated Forms of Hydroxypyrazinecarboxamide Pseudobase T-705 and Its De-Fluoro Analogue T-1105 as Potent Influenza Virus Inhibitors” (J Med Chem, 2018).

What all share (experiment): microbe, parasite or virus in culture
For assay [1], the system named is Influenza A virus. The note with it: MDCK, 72 h.
For assay [2], the system named is Influenza A virus. As to conditions: MDCK, 72 h. This is another data set of the same source.
Assay [3] has as its system Influenza B virus. As to conditions: Ned/537/05, MDCK, 72 h.
The test system of assay [4] is Influenza B virus. As to conditions: Ned/537/05, MDCK, 72 h. The source holds these as a separate data set.

Structures are written as SMILES.

In the case of `NC(=O)c1nc(F)cnc1O`, the half-maximal effective concentration (EC50) with Influenza A virus [1], with Influenza A virus [2], in the assay with Influenza B virus [3] and with Influenza B virus [4] was over 250 µM in each case.
Consider `NC(=O)c1nccn([C@@H]2O[C@H](CO)[C@@H](O)[C@H]2O)c1=O`, for which the EC50 with Influenza A virus [1] amounted to 53 µM; with Influenza A virus [2], 51 µM; in the assay on Influenza B virus [3], 20 µM; in the assay with Influenza B virus [4] it was 19 µM.
On the same counts, the results for `CCCCCCCCCCCCCCC(=O)Oc1ccc(COP(=O)(OCc2ccc(OC(=O)CCCC)cc2)OP(=O)(O)OC[C@H]2O[C@@H](n3cc(F)nc(C(N)=O)c3=O)[C@H](O)[C@@H]2O)cc1.CCN(CC)CC` (stereo partly specified) are 6.6 µM, 8.8 µM, 3.4 µM and 2.8 µM.
As to `CCCCCCCCCC(=O)Oc1ccc(COP(=O)(OCc2ccc(OC(=O)CCCCCCCCC)cc2)OP(=O)(O)OP(=O)(O)OC[C@H]2O[C@@H](n3ccnc(C(N)=O)c3=O)[C@H](O)[C@@H]2O)cc1.CCN(CC)CC.CCN(CC)CC`, the EC50 in the assay with Influenza A virus [1] came to 2.6 µM; with Influenza A virus [2] it was 4.5 µM; in the assay with Influenza B virus [3], 1.9 µM; in the assay on Influenza B virus [4] it was 1 µM.
As for `CC(=O)O[C@@H]1[C@H](OC(C)=O)[C@@H](COP2(=O)OCc3cccc(C)c3O2)O[C@H]1n1ccnc(C(N)=O)c1=O` (stereo partly specified), the EC50 is over 400 µM in the assay on Influenza A virus [1], over 400 µM in the assay with Influenza A virus [2], over 400 µM in the assay on Influenza B virus [3] and 177 µM in the assay with Influenza B virus [4].
In the case of `NC(=O)c1nc(Br)cnc1O`, the EC50 in the assay on Influenza A virus [1] was over 250 µM; with Influenza A virus [2], over 250 µM; in the assay on Influenza B virus [3] it was over 250 µM; in the assay on Influenza B virus [4], 63 µM.
With `NC(=O)c1nccnc1O`, the EC50 in the assay on Influenza A virus [1], in the assay with Influenza A virus [2], in the assay with Influenza B virus [3] and in the assay with Influenza B virus [4] was over 250 µM each time.
`CCCCCCCCCC(=O)Oc1ccc(COP(=O)(OCc2ccc(OC(=O)CCCCCCCCC)cc2)OP(=O)(O)OC[C@H]2O[C@@H](n3ccnc(C(N)=O)c3=O)[C@H](O)[C@@H]2O)cc1.CCN(CC)CC`: the EC50 with Influenza A virus [1] was 1.3 µM; with Influenza A virus [2] it was 0.97 µM; with Influenza B virus [3] it was 0.55 µM; in the assay on Influenza B virus [4], 0.39 µM.
For `Cc1cccc2c1OP(=O)(OC[C@H]1O[C@@H](n3ccnc(C(N)=O)c3=O)[C@H](O)[C@@H]1O)OC2` (stereo partly specified) the same measures were 256 µM, 368 µM, 200 µM and 106 µM.
As to `CCCCCCCCCCCCCCC(=O)Oc1ccc(COP(=O)(OCc2ccc(OC(=O)CCCC)cc2)OP(=O)(O)OP(=O)(O)OC[C@H]2O[C@@H](n3ccnc(C(N)=O)c3=O)[C@H](O)[C@@H]2O)cc1.CCN(CC)CC.CCN(CC)CC` (stereo partly specified), the EC50 in the assay on Influenza A virus [1] is 5.6 µM; in the assay on Influenza A virus [2], 5.4 µM; in the assay on Influenza B virus [3], 2.6 µM; in the assay on Influenza B virus [4], 1.5 µM.
On the same counts, the results for `CCCCCCCCCCCCCCC(=O)Oc1ccc(COP(=O)(OCc2ccc(OC(=O)CCCC)cc2)OP(=O)(O)OC[C@H]2O[C@@H](n3ccnc(C(N)=O)c3=O)[C@H](O)[C@@H]2O)cc1.CCN(CC)CC` (stereo partly specified) are 1.5 µM, 1.4 µM, 0.66 µM and 0.53 µM.
`NC(=O)c1nc(Br)cn([C@@H]2O[C@H](CO)[C@@H](O)[C@H]2O)c1=O`: the EC50 in the assay on Influenza A virus [1] is over 250 µM; in the assay with Influenza A virus [2], over 250 µM; in the assay on Influenza B virus [3], over 250 µM; in the assay on Influenza B virus [4], 170 µM.
As to `NC(=O)c1ncn([C@@H]2O[C@H](CO)[C@@H](O)[C@H]2O)n1` [RIBAVIRIN], the EC50 in the assay on Influenza A virus [1] amounted to 5 µM; with Influenza A virus [2], 5.8 µM; in the assay with Influenza B virus [4] it was 1.5 µM.

A word on the EC50: it is the concentration that produces a half-maximal response. Read a high EC50 as weaker potency.
